How the values were obtained:
[1] = test system: cultured primary human myocytes; assay: fatty acid oxidation rates in cultured primary human myocytes (radiolabeled CO2 release); assay type: cell-based; conditions: 48 hr, n=6; for differences from control in fatty acid oxidation: ethanol control, 30, 100 and 300 micromolar; for promotion of fatty acid oxidation (complete oxidation, CO2): normal primary human myocytes, 30, 100 and 300 micromolar, radiolabeled oleic acid, compared to EPAEE
Text: FIG. 1 is a graph of the data obtained from biology tests described herein of EPA and DHA ascorbates on fatty acid oxidation rates in cultured on normal primary human myocytes. The vertical axis is the complete oxidation (nmol CO2/mg protein). The statistical variance is shown by the “T” at the top of each bar. The #1 bar (solid coral) is the ethanol as control; #2 bars (solid gray, from left to right are 30, 100 and 300 micromolar) of EPA; #3 bars (solid green, from left to right are 30, 100 and 300 micromolar) of EPAX; #4 bars (hash red and white, from left to right are 30, 100 and 300 micromolar) of DHAX; and #5 bars (solid red, from left to right are 30, 100 and 300 micromolar) of EPAEE.
Effect of EPA and DHA ascorbates on fatty acid oxidation rates in cultured primary human myocytes were determined and discussed below.
Cell-based multiwell assays for the detection of substrate accumulation and oxidation are described in literature (A. J. Wensaas, et al., J. of Lipid Research 48, 961-967 (2007)) for detecting the accumulation as well as the subsequent oxidation of ^14C labeled substrates in cultured cells. Accumulation is monitored in real time by an established scintillation proximity assay in which the scintillator is embedded in the plate base primarily detecting cell-associated radiolabel. This method was applied, and the effect of EPA and DHA ascorbates on fatty acid oxidation rates in cultured primary human myocytes was determined The compounds tested were EPA, EPAX (EPAX), DHAX (DHAX), and EPAEE.
Cultured human primary myocytes from normal (non-diabetic, non-obese) subjects
Cells treated with 30, 100 and 300 micromolar of each compound for 48 hr
Cells grown in the presence of radiolabeled oleic acid
Radiolabeled CO2 released during the incubation was measured.
Each compound was tested 6 times (n=6)

[2] = cited from earlier work

SMILES	differences from control in fatty acid oxidation [1]	promotion of fatty acid oxidation (complete oxidation, CO2) [1]	solubility in aqueous ethanol ([2]; aqueous ethanol)	solubility in water ([2]; water)
CC/C=C\C/C=C\C/C=C\C/C=C\C/C=C\C/C=C\CCC(=O)OC[C@H](O)[C@H]1OC(=O)C(O)=C1O [DHA ascorbate]	not statistically significant	to a lesser degree	–	–
CCCCCCCCCCCCCCCC(=O)OC[C@H](O)[C@H]1OC(=O)C(O)=C1O [Palmitoyl ascorbate, 6-O-palmitoyl L-ascorbate]	–	–	soluble	sparingly soluble
CC/C=C\C/C=C\C/C=C\C/C=C\C/C=C\CCCC(=O)OC[C@H](O)[C@H]1OC(=O)C(O)=C1O [EPA ascorbate]	not statistically significant	distinct trend	–	–
